Patent US20240000737A1, “SUBSTANCES FOR TREATMENT OF HYPERURICAEMIA” (SCANDIBIO THERAPEUTICS AB, priority 2020, published 2024)

Experiments:
plasma uric acid = assay: Rat high-fat diet study: plasma uric acid; type: in vivo, Sprague Dawley male rats; details: HFD rats, once daily oral gavage in weeks four and five, fold change relative to group 3 (HFD reference), * = P < 0.05
Description: (§1) The Ethics Committee of Atatürk University approved all experimental protocols about animal care, handling and experimentation. All experiments were performed in accordance with relevant guidelines and regulations. 44 Sprague Dawley male rats (10-12 weeks old) weighing 375-415 g were obtained from Atatürk University Experimental Research Center (ATADEM) and housed at 22±2° C. with 50±5% humidity on a 12 hr light/dark cycle.
(§2) Chow diet (CD) and a high-fat diet (HFD) were used to fed the animals in this study. The CD was composed of wheat, wheat bran, rice polishing and fish meal, with approximately 25% proteins, 60% carbohydrates and 15% fat in terms of the caloric content. On the other hand, HFD was composed of normal food, beef tallow, sugar and condensed milk and contained approximately 14% proteins, 37% carbohydrates and 49% fat in terms of the caloric content.
(§3) Following 1-week habituation, the rats were separated into two groups: a control group (Group 1, n=4), which was fed with a regular CD; and the HFD group (n=40), which was fed with HFD. After three weeks, four rats in the HFD group (Group 2) were randomly sacrificed and the remaining 36 rats in the HFD group were randomly divided into nine sub-groups (Groups 3-11, four rats in each subgroup).
(§4) Groups 3-11 received the following treatments during weeks four and five: • Group 3 received only the HFD (reference) • Group 4 received the HFD and Serine (1000 mg/kg once daily by oral gavage) • Group 5 received the HFD and NAC (300 mg/kg once daily by oral gavage) • Group 6 received the HFD and L-Carnitine tartrate (LCAT) (100 mg/kg once daily by oral gavage) • Group 7 received the HFD and Nicotinamide riboside chloride (NRCl) (120 mg/kg once daily by oral gavage) • Group 8 received the HFD and Nicotinamide (NA) (120 mg/kg once daily by oral gavage) • Group 9 received the HFD, Serine (1000 mg/kg once daily by oral gavage), NAC (300 mg/kg once daily by oral gavage) and LCAT (100 mg/kg once daily by oral gavage) • Group 10 received the HFD, Serine (1000 mg/kg once daily by oral gavage), NAC (300 mg/kg once daily by oral gavage), LCAT (100 mg/kg/day) and NRCl (120 mg/kg once daily by oral gavage) • Group 11 received the HFD, Serine (1000 mg/kg once daily by oral gavage), NAC (300 mg/kg once daily by oral gavage), LCAT (100 mg/kg once daily by oral gavage) and NA (120 mg/kg once daily by oral gavage)
(§5) The body weight and food intake of the rats was recorded each week. After week five, all animals of groups 3-11 were anesthetized with isoflurane and sacrificed. Blood samples were collected from the abdominal aorta and centrifuged at 8000 rpm for 15 min at 4° C. The plasma was separated and stored at −80° C. until further analysis.
(§6) Plasma samples were thawed and analyzed for creatinine and uric acid.

plasma creatinine = assay: Rat high-fat diet study: plasma creatinine; type: in vivo, Sprague Dawley male rats; details: HFD rats, once daily oral gavage in weeks four and five, fold change relative to group 3 (HFD reference), * = P < 0.05
Description: as §1, §2, §3, §4, §5, §6

## C[N+](C)(C)C[C@H](O)CC(=O)[O-].O=C(O)C(O)C(O)C(=O)O [LCAT, L-Carnitine tartrate]
Plasma uric acid
  Uric Acid Fold change: 0.62*
Plasma creatinine
  Creatinine Fold change: 0.89

## NC(=O)c1cccnc1 [NA, Nicotinamide]
Plasma uric acid
  Uric Acid Fold change: 0.53*
Plasma creatinine
  Creatinine Fold change: 0.96

## CC(=O)N[C@@H](CS)C(=O)O [NAC, N-acetyl cysteine]
Plasma uric acid
  Uric Acid Fold change: 0.76
Plasma creatinine
  Creatinine Fold change: 0.85

## NC(=O)c1ccc[n+]([C@@H]2O[C@H](CO)[C@@H](O)[C@H]2O)c1.[Cl-] [NRCl, Nicotinamide riboside chloride]
Plasma uric acid
  Uric Acid Fold change: 0.64*
Plasma creatinine
  Creatinine Fold change: 0.83*

## N[C@@H](CO)C(=O)O [Serine]
Plasma uric acid
  Uric Acid Fold change: 0.72*
Plasma creatinine
  Creatinine Fold change: 0.84*
